Experimental data from patent publication US10208083B2 (priority 2015, dated 2019).
Marks after values point to notes of the source that are not given here.

Tests used:
UWB1.289 = experiment: cells; type: cell-based, human; design: TGI: unit not given here; settings: for GI50 / IC50: Homo sapiens, UWB1289, 48 h
UWB1.289 + BRCA1 = experiment: cells; type: cell-based, human; design: TGI: unit not given here; settings: for GI50 / IC50: Homo sapiens, UWB1289, 48 h
OVCAR-3 = experiment: cells; type: cell-based, human; design: TGI: unit not given here; settings: for GI50 / IC50: Homo sapiens, OVCAR-3, 48 h
SKOV-3 = experiment: cells; type: cell-based, human; design: TGI: unit not given here; settings: for GI50 / IC50: Homo sapiens, SK-OV-3, 48 h
MCF-7 = experiment: cells; type: cell-based, human; design: TGI: unit not given here; settings: for GI50 / IC50: Homo sapiens, MCF7, 48 h
T-47D = experiment: cells; type: cell-based, human; design: TGI: unit not given here; settings: for GI50 / IC50: Homo sapiens, T47D, 48 h
PC-3 = experiment: cells; type: cell-based, human; design: TGI: unit not given here; settings: for GI50 / IC50: Homo sapiens, PC-3, 48 h
MOLT-4 = experiment: cells; type: cell-based, human; design: TGI: unit not given here; settings: for GI50 / IC50: Homo sapiens, MOLT-4, 48 h
K-562 = experiment: cells; type: cell-based, human; design: TGI: unit not given here; settings: for GI50 / IC50: Homo sapiens, K562, 48 h
[1] = tested on: murine P388 lymphocytic leukemia; design: species or system mice; settings: mouse, in vivo, ip; further: test concentration or dose not given here
[2] = tested on: SCOV-3 human ovarian cancer; settings: in vivo; on OS % on Day-70: test concentration or dose not given here; on PFS % on Day-70: test concentration or dose not given here
C57Bl/6 mice = settings: female, C57Bl/6, mouse, in vivo, ip
in vivo = settings: female, C57Bl/6, mouse, ip

Compound | TGI (UWB1.289) | GI50 (UWB1.289) [µM] | IC50 (UWB1.289) [µM] | TGI (UWB1.289 + BRCA1) | GI50 (UWB1.289 + BRCA1) [µM] | IC50 (UWB1.289 + BRCA1) [µM] | TGI (OVCAR-3) | GI50 (OVCAR-3) [µM] | IC50 (OVCAR-3) [µM] | TGI (SKOV-3) | GI50 (SKOV-3) [µM] | IC50 (SKOV-3) [µM] | TGI (MCF-7) | GI50 (MCF-7) [µM] | IC50 (MCF-7) [µM] | TGI (T-47D) | GI50 (T-47D) [µM] | IC50 (T-47D) [µM] | TGI (PC-3) | GI50 (PC-3) [µM] | further results
C[C@]12CC[C@H](OC(=O)Cc3ccc(N(CCCl)CCCl)cc3)C[C@@H]1CC[C@@H]1[C@@H]2CC[C@@]2(C)NC(=O)CC[C@@H]12 [ASE, 3beta-hydroxy-13alpha-amino-13,17-seco-5alpha-androstan-17-oic-13,17-lactam-[p-[bis (2-chloroethyl)amino]phenyl]acetate, reference compound] | 30 | 16 | 54 | >100 | 80 | > 100 | 52 | 36 | 64 | 92 | 45 | > 100 | 57 | 29 | 96 | 47 | 22 | 92 | 49 | 34 | IC50 (PC-3): 89 µM; TGI (MOLT-4): 56; GI50 (MOLT-4): 8 µM; IC50 (MOLT-4): 93 µM; TGI (K-562): 78; GI50 (K-562): 9 µM; IC50 (K-562): > 100 µM; Cures [1]: 0/6; MST ± SD [1]: 24 days; T/C % [1]: 267* %; OS % on Day-70 [2]: 80%; PFS % on Day-70 [2]: 40%; TI % at Day-35 [2]: 34%; LD10 (C57Bl/6 mice): 30 mg/kg; LD50 (in vivo): 50 mg/kg
C[C@]12CC[C@H]3[C@@H](CCC4=CC(=O)NCC[C@@]43C)[C@@H]1CC[C@@H]2OC(=O)CCOc1ccc(N(CCCl)CCCl)cc1 [Compound 3] | 8 | 3 | 20 | 25 | 12 | 40 | 32 | 21 | 42 | 52 | 18 | 76 | 38 | 17 | 70 | 25 | 10 | 66 | 30 | 22 | IC50 (PC-3): 56 µM; TGI (MOLT-4): 27; GI50 (MOLT-4): 3 µM; IC50 (MOLT-4): 65 µM; TGI (K-562): 30; GI50 (K-562): 3 µM; IC50 (K-562): 71 µM; Cures [1]: 0/6; MST ± SD [1]: 39 days; T/C % [1]: 433* %; OS % on Day-70 [2]: 100%; PFS % on Day-70 [2]: 100%; TI % at Day-35 [2]: 62%; LD10 (C57Bl/6 mice): 130 mg/kg; LD50 (in vivo): 150 mg/kg
C[C@]12CC[C@@H]3c4ccc(OC(=O)CCOc5ccc(N(CCCl)CCCl)cc5)cc4CC[C@H]3[C@@H]1CCC(=O)N2 [Compound 6] | 20 | 6 | 44 | 66 | 18 | 88 | 40 | 30 | 56 | 76 | 12 | > 100 | 36 | 15 | 65 | 30 | 10 | 55 | 29 | 16 | IC50 (PC-3): 51 µM; TGI (MOLT-4): 28; GI50 (MOLT-4): 5 µM; IC50 (MOLT-4): 50 µM; TGI (K-562): 30; GI50 (K-562): 5 µM; IC50 (K-562): 50 µM; Cures [1]: 0/6; MST ± SD [1]: 36 days; T/C % [1]: 400* %; OS % on Day-70 [2]: 100%; PFS % on Day-70 [2]: 100%; TI % at Day-35 [2]: 56%; LD10 (C57Bl/6 mice): 80 mg/kg; LD50 (in vivo): 100 mg/kg
C[C@]12CC(=O)[C@H]3[C@@H](CCC4=CC(=O)NCC[C@@]43C)[C@@H]1CC[C@@H]2OC(=O)CCOc1ccc(N(CCCl)CCCl)cc1 [Compound 11] | 20 | 6 | 25 | 31 | 22 | 42 | 18 | 8 | 22 | 32 | 20 | 44 | 68 | 25 | > 100 | 59 | 26 | 98 | 44 | 29 | IC50 (PC-3): 68 µM; TGI (MOLT-4): 20; GI50 (MOLT-4): 1.5 µM; IC50 (MOLT-4): 45 µM; TGI (K-562): 35; GI50 (K-562): 2 µM; IC50 (K-562): 55 µM; Cures [1]: 1/6; MST ± SD [1]: 56 days; T/C % [1]: 622* %; OS % on Day-70 [2]: 100%; PFS % on Day-70 [2]: 100%; TI % at Day-35 [2]: 73%; LD10 (C57Bl/6 mice): 100 mg/kg; LD50 (in vivo): 130 mg/kg
C[C@]12CC(=O)N[C@H]3[C@@H](CCC4=CC(=O)NCC[C@@]43C)[C@@H]1CC[C@@H]2OC(=O)CCOc1ccc(N(CCCl)CCCl)cc1 [Compound 16] | 28 | 3 | 40 | 32 | 12 | 50 | 20 | 9 | 35 | 46 | 20 | 70 | 36 | 15 | 65 | 30 | 10 | 55 | 29 | 16 | IC50 (PC-3): 51 µM; TGI (MOLT-4): 36; GI50 (MOLT-4): 4 µM; IC50 (MOLT-4): 56 µM; TGI (K-562): 47; GI50 (K-562): 7 µM; IC50 (K-562): 65 µM; Cures [1]: 0/6; MST ± SD [1]: 44 days; T/C % [1]: 489* %; OS % on Day-70 [2]: 100%; PFS % on Day-70 [2]: 100%; TI % at Day-35 [2]: 55%; LD10 (C57Bl/6 mice): 140 mg/kg; LD50 (in vivo): 165 mg/kg
C[C@]12CC[C@H](OC(=O)CCOc3ccc(N(CCCl)CCCl)cc3)CC1=CC(=O)N[C@@H]1[C@@H]2CC[C@]2(C)C(=O)CC[C@@H]12 [Compound 18] | 42 | 13 | 70 | 38 | 20 | 69 | 47 | 20 | 70 | 46 | 24 | 68 | 46 | 21 | 79 | 32 | 14 | 72 | 36 | 23 | IC50 (PC-3): 70 µM; TGI (MOLT-4): 38; GI50 (MOLT-4): 5 µM; IC50 (MOLT-4): 76 µM; TGI (K-562): 38; GI50 (K-562): 6 µM; IC50 (K-562): 87 µM; Cures [1]: 0/6; MST ± SD [1]: 34 days; T/C % [1]: 378* %; OS % on Day-70 [2]: 100%; PFS % on Day-70 [2]: 80%; TI % at Day-35 [2]: 44%; LD10 (C57Bl/6 mice): 85 mg/kg; LD50 (in vivo): 110 mg/kg
